Results as given in patent US9113629B2, “4-amino-6-(4-substituted-phenyl)-picolinates and 6-amino-2-(4-substituted-phenyl)-pyrimidine-4-carboxylates and their use as herbicides” (DOW AGROSCIENCES LLC, priority 2013, dated 2015).
Like-named read-outs stand apart in the source and are kept apart here.

Legend:
[1] = test system: Key Broadleaf Weed and Crop Species; assay: Post-emergent Test II herbicidal activity (Table 5); type: in vivo; conditions: post-emergence, 336 h, post-emergent, 14 days after application; for pest or weed control at 70 g/ha: 70 g ai/ha; for pest or weed control at 140 g/ha: 140 g ai/ha
How it was run: (§1)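 Foliar application at 187 L/ha to greenhouse-grown seedlings (first or second true leaf); subirrigation thereafter. Visual 0–100% injury at 14 d relative to untreated plants.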

[2] = test system: Key Grass and Sedge Weeds as well as Grass Crops; assay: Post-emergent Test II herbicidal activity (Table 6); type: in vivo; conditions: post-emergence, 336 h; for pest or weed control at 70 g/ha: application rate 70 g ai/ha; for pest or weed control at 140 g/ha: application rate 140 g ai/ha
How it was run: as §1

[3] = ABUTH: velvetleaf (Abutilon theophrasti), read-out: Visual Growth Reduction (%) 14 Days After Application ABUTH
[4] = AMARE: redroot pigweed (Amaranthus retroflexus), read-out: Visual Growth Reduction (%) 14 Days After Application AMARE
[5] = BRSNN: oilseed-rape, canola (Brassica napus), read-out: Visual Growth Reduction (%) 14 Days After Application BRSNN
[6] = CHEAL: lambsquarters (Chenopodium album), read-out: Visual Growth Reduction (%) 14 Days After Application CHEAL
[7] = EPHHL: wild poinsettia (Euphorbia heterophylla), read-out: Visual Growth Reduction (%) 14 Days After Application EPHHL
[8] = HELAN: sunflower (Helianthus annuus), read-out: Visual Growth Reduction (%) 14 Days After Application HELAN
[9] = VIOTR: wild pansy (Viola tricolor), read-out: Visual Growth Reduction (%) 14 Days After Application VIOTR
[10] = Triticum aestivum, TRZSS (wheat), read-out: Visual Growth Reduction (%) 14 Days After Application, TRZSS
[11] = CYPES: yellow nutsedge (Cyperus esculentus), read-out: Visual Growth Reduction (%) 14 Days After Application, CYPES
[12] = DIGSA: crabgrass (Digitaria sanguinalis), read-out: Visual Growth Reduction (%) 14 Days After Application, DIGSA
[13] = ECHCG: barnyardgrass (Echinochloa crus-galli), read-out: Visual Growth Reduction (%) 14 Days After Application, ECHCG
[14] = ORYSA: rice (Oryza sativa), read-out: Visual Growth Reduction (%) 14 Days After Application, ORYSA
[15] = SETFA: giant foxtail (Setaria faberi), read-out: Visual Growth Reduction (%) 14 Days After Application, SETFA
[16] = SORVU: grain sorghum (Sorghum vulgare), read-out: Visual Growth Reduction (%) 14 Days After Application, SORVU
[17] = ZEAMX: maize, corn (Zea mays), read-out: Visual Growth Reduction (%) 14 Days After Application, ZEAMX

COC(=O)c1nc(-c2cc(F)c(I)cc2F)cc(N)c1Cl [Compound 56]
pest or weed control at 70 g/ha [1, 3]: 95 to 100%
pest or weed control at 140 g/ha [1, 3]: 95 to 100%
pest or weed control at 70 g/ha [1, 4]: 95 to 100%
pest or weed control at 140 g/ha [1, 4]: 95 to 100%
pest or weed control at 70 g/ha [1, 5]: 85 to 94%
pest or weed control at 140 g/ha [1, 5]: 85 to 94%
pest or weed control at 70 g/ha [1, 6]: 95 to 100%
pest or weed control at 140 g/ha [1, 6]: 95 to 100%
pest or weed control at 70 g/ha [1, 7]: 95 to 100%
pest or weed control at 140 g/ha [1, 7]: 95 to 100%
pest or weed control at 70 g/ha [1, 8]: 75 to 84%
pest or weed control at 140 g/ha [1, 8]: 85 to 94%
pest or weed control at 70 g/ha [1, 9]: 95 to 100%
pest or weed control at 140 g/ha [1, 9]: 95 to 100%
pest or weed control at 70 g/ha [2, 10]: 60 to 74%
pest or weed control at 140 g/ha [2, 10]: 60 to 74%
pest or weed control at 70 g/ha [2, 11]: 95 to 100%
pest or weed control at 140 g/ha [2, 11]: 95 to 100%
pest or weed control at 70 g/ha [2, 12]: 75 to 84%
pest or weed control at 140 g/ha [2, 12]: 85 to 94%
pest or weed control at 70 g/ha [2, 13]: 95 to 100%
pest or weed control at 140 g/ha [2, 13]: 95 to 100%
pest or weed control at 70 g/ha [2, 14]: 0 to 29%
pest or weed control at 140 g/ha [2, 14]: 0 to 29%
pest or weed control at 70 g/ha [2, 15]: 95 to 100%
pest or weed control at 140 g/ha [2, 15]: 95 to 100%
pest or weed control at 70 g/ha [2, 16]: 75 to 84%
pest or weed control at 140 g/ha [2, 16]: 85 to 94%
pest or weed control at 70 g/ha [2, 17]: 85 to 94%
pest or weed control at 140 g/ha [2, 17]: 85 to 94%
